pEC50: −log10 of the molar value. Values after ≈ are worked out from the molar mass of the structure shown.

The text below walks through data of patent publication US20250127801A1, “BRIDGED TRICYCLIC CARBAMOYLPYRIDONE COMPOUNDS AND USES THEREOF” (priority 2023, published 2025).

Data set [1] is described as follows: in vivo. To be noted: male, beagle, dog, po, 175 mg.
The nature of data set [2]: physchem. To be noted: FaSSIF, 23 °C, thermodynamic from solid.
The nature of data set [3]: in vitro. To be noted: human, uninfected MT-4 cells.
In data set [4] the test system is HIV-1 (IIIB). Nature of the data set: microbe, parasite or virus in culture. The class given is cell-based. To be noted: Human immunodeficiency virus 1, MT4, 120 h; HIV-1 (IIIB) replication in MT-4 cells, 5 days incubation, Cell Titer Glo; read-out: MT4 EC50. (In general: In ATP-based viability assays light output follows the ATP content of the culture.)

In data set [1], `CC1=NO[C@@]2(CC[C@H](C)N3C[C@H]2n2cc(C(=O)NCc4ccc(F)cc4F)c(=O)c(O)c2C3=O)C1` [Intermediate B, (3′S,5S,7′R)—N-(2,4-difluorobenzyl)-12′-hydroxy-3,3′-dimethyl-1′,11′-dioxo-1′,4′,5′,11′-tetrahydro-3′H,4H,7′H-spiro[isoxazole-5,6′-[2,7]methanopyrido[1,2-a][1,4]diazonine]-10′-carboxamide] displayed a bioavailability of 15.6%.

In data set [1], `COC1=NO[C@@]2(CC[C@H](C)N3C[C@H]2n2cc(C(=O)NCc4ccc(F)cc4F)c(=O)c(O)c2C3=O)C1` [Intermediate C, (3′S,5S,7′R)—N-(2,4-difluorobenzyl)-12′-hydroxy-3-methoxy-3′-methyl-1′,11′-dioxo-1′,4′,5′,11′-tetrahydro-3′H,4H,7′H-spiro[isoxazole-5,6′-[2,7]methanopyrido[1,2-a][1,4]diazonine]-10′-carboxamide] displayed a bioavailability of 14.5%.

For `CC1=NO[C@@]2(CC[C@H](C)N3C[C@H]2n2cc(C(=O)NCc4ccc(F)cc4F)c(=O)c(OCOC(=O)O[C@H]4CCCC[C@H]4COP(=O)(O)O)c2C3=O)C1` [Compound 53, (((3′S,5S,7′R)-10′-((2,4-difluorobenzyl)carbamoyl)-3,3′-dimethyl-1′,11′-dioxo-1′,4′,5′,11′-tetrahydro-3′H,4H,7′H-spiro[isoxazole-5,6′-[2,7]methanopyrido[1,2-a][1,4]diazonin]-12′-yl)oxy)methyl ((1S,2S)-2-((phosphonooxy)methyl)cyclohexyl) carbonate], the thermodynamic solubility at 24 h in data set [2] is 4680 µg/mL (≈ 6.22 mM). For the same compound, the CC50 at 5 days in data set [3] is 35.7 µM. The pEC50 in data set [4] is 8.30.

In turn, `CC1=NO[C@@]2(CC[C@H](C)N3C[C@H]2n2cc(C(=O)NCc4ccc(F)cc4F)c(=O)c(OC(=O)[C@@H]4CCCN4C(=O)OCOP(=O)(O)O)c2C3=O)C1` [Compound 17, 2-((3′S,5S,7′R)-10′-((2,4-difluorobenzyl)carbamoyl)-3,3′-dimethyl-1′,11′-dioxo-1′,4′,5′,11′-tetrahydro-3′H,4H,7′H-spiro[isoxazole-5,6′-[2,7]methanopyrido[1,2-a][1,4]diazonin]-12′-yl) 1-((phosphonooxy)methyl) (2S)-pyrrolidine-1,2-dicarboxylate] displayed a solubility (thermodynamic) at 24 h in data set [2] of 2540 µg/mL (≈ 3.45 mM). Besides, it took 13 µM to reach half-maximal cytotoxicity in data set [3] (CC50 at 5 days). The negative-log EC50 (pEC50) in data set [4] is 9.03.

The term bioavailability denotes the share of a dose that reaches the circulation, judged against a reference dose that is usually intravenous. The low end stands for little systemic uptake, the high end for much systemic uptake. The solubility (thermodynamic) is solubility found after equilibrating the solid with the medium. As usually defined, the CC50 is the concentration giving 50% cytotoxicity. Read a low CC50 as greater toxicity to the cells. A word on the pEC50: it is −log10 of the EC50, conventionally taken in molar units.
